Experiments:
[1] = experimentally determined values from literature; cited from earlier work
[2] = Recrystallization in shampoo, 2 days at 5° C., microscopy; assay type: physicochemical; conditions: polarized light, 60 fold, 0.1% 4-isopropyl-3-methyl-phenol
Protocol: To investigate the influence on recrystallization in a finished formulation the pre-solutions BC, BC2, BC3 and BC5 (Table 3) in comparison to neat 4-isopropyl-3-methyl phenol were incorporated into a shampoo. (Table 5, trials 1-5) The samples were stored for 2 days at 5° C. and then examined by microscopy.
Production method shampoo: Blend Phase A by stirring slowly with a vane stirrer, stop the process when foaming starts. Swell Ucare Poylmer JR-400 in water by stirring and warming up to 50° C. (The dispersion becomes clear and slightly viscous, when swelling process is completed) Add Phases B, C and D to A one after the other by stirring with a vane stirrer.
Incorporation of 4-isopropyl-3-methyl-phenol (neat) into the finished shampoo: Heat up the shampoo to 70° C., add 4-isopropyl-3-methyl-phenol and stir for 15 min.
Incorporation of solutions BC, BC2, B3 and BC5: Blend 0,45% (corresponds to 0,1% neat 4-isopropyl-3-methyl-phenol) of the different mixtures with the shampoo formula at 22° C. by […]
Microscopic images (Olympus IX 70, polarized light, 60 fold) of shampoo formulae 1-5 after 2 days storage at 5° C. are provided in FIGS. 4A to 4E.

[3] = General solubility of 4-isopropyl-3-methyl-phenol in different hydrophilic solvents, storage at 5° C.; assay type: physicochemical; conditions: stored at 5° C.
Protocol: After preparation, the samples were stored at 5° C. for […]. […] The evaluation of these limits was important for further determination of quantitative solubility improvement. The results are compiled in Table A and 13; the symbols have the following meanings: (++++) fully dissolved; (++) dissolved, but moderate recrystallisation after 48 h at 5° C.; (+) dissolved, but strong recrystallisation after 48 h at 5° C.; (#) not dissolved.

| SMILES | LOG Po/w (exp.) [1] | also measured |
| --- | --- | --- |
| COC(=O)c1ccccc1O [Methyl salicylate] | 2.55 | – |
| OCCOc1ccccc1 [Phenoxyethanol] | 1.16 | – |
| CC(=O)OCCC(C)C [Isoamyl acetate] | 2.25 | – |
| CCCCCCCCCCCC(=O)OCC [Ethyl Laurate] | 5.71 | – |
| C=C(C)C1CC=C(C)C(=O)C1 (stereo not shown) [Carvone] | 2.71 | – |
| O=C(OCCc1ccccc1)c1ccccc1 [Phenethyl Benzoate] | 4.01 | – |
| CCCCC(O)CO (stereo not shown) [1,2-Hexanediol] | 0.69 | – |
| OCCO [Ethylene glycol] | −1.36 | – |
| CCOCCOCCO [Ethoxydiglycol] | −0.54 | – |
| Cc1cc(O)ccc1C(C)C [4-isopropyl-3-methyl-phenol] | – | Recrystallization in shampoo [2]: recrystallized |
| O=C1OCC(CO)O1 (stereo not shown) [Glycerin Carbonate] | – | Solubility of 4-isopropyl-3-methyl-phenol in different hydrophilic solvents ([3]; Concentration 5 % b.w.): ++ |
| CC(O)CO (stereo not shown) [Propylene Glycol] | – | Solubility of 4-isopropyl-3-methyl-phenol in different hydrophilic solvents ([3]; Concentration 22 % b.w.): ++; Solubility of 4-isopropyl-3-methyl-phenol in different hydrophilic solvents ([3]; Concentration 25 % b.w.): + |
| CC(C)[C@@H]1CC[C@@H](C)CC1=O [Menthone] | 3.05 | – |
| CC1COC(=O)O1 (stereo not shown) [Propylene Carbonate] | – | Solubility of 4-isopropyl-3-methyl-phenol in different hydrophilic solvents ([3]; Concentration 18 % b.w.): ++; Solubility of 4-isopropyl-3-methyl-phenol in different hydrophilic solvents ([3]; Concentration 29 % b.w.): + |
| Cc1ccc(C(C)C)cc1O [Carvacrol] | 3.49 | – |
| CC(=O)OC1CC(C)CCC1C(C)C (stereo not shown) [Menthyl acetate] | 4.00 | – |
| OCc1ccccc1 [Benzylalkohol] | – | Solubility of 4-isopropyl-3-methyl-phenol in different hydrophilic solvents ([3]; Concentration 15 % b.w.): ++; Solubility of 4-isopropyl-3-methyl-phenol in different hydrophilic solvents ([3]; Concentration 22 % b.w.): +; Solubility of 4-isopropyl-3-methyl-phenol in different hydrophilic solvents ([3]; Concentration 25 % b.w.): +; Solubility of 4-isopropyl-3-methyl-phenol in different hydrophilic solvents ([3]; Concentration 30 % b.w.): +; Solubility of 4-isopropyl-3-methyl-phenol in different hydrophilic solvents ([3]; Concentration 34 % b.w.): +; Solubility of 4-isopropyl-3-methyl-phenol in different hydrophilic solvents ([3]; Concentration 36 % b.w.): +; Solubility of 4-isopropyl-3-methyl-phenol in different hydrophilic solvents ([3]; Concentration 40 % b.w.): +; Solubility of 4-isopropyl-3-methyl-phenol in different hydrophilic solvents ([3]; Concentration 46 % b.w.): + |
| CCOC(C)=O [Ethyl acetate] | 0.73 | – |
| C=C(C)[C@H]1CC=C(C)CC1 [Limonene] | 4.38 | – |

— patent publication US11400035B2, “Preservative mixture” (Symrise AG, priority 2016, dated 2022)
